Where two headings read alike, the source gives them in different places.
Key:
Type in all cases: cell-based
CMK-86 = experiment: Cellular proliferation assay
Method: (§1) All suspension cells were plated (96-well) in triplicate at 5,000-30,000 cells per well for testing (n=3). Viable cell number was estimated after 3, 7 and 10 days by counting viable cells from one vehicle well, generating a cell dilution series, transferring […] per well in duplicate to a 384-well plate, and performing a linear regression to CellTiter-Glo (Promega) response (SPECTRAmax M3, Molecular Devices). Cells from all wells were also fourfold diluted in media and transferred in duplicate for CellTiter-Glo measurement. On days 3 and 7, an equal volume for all wells was split-back with fresh media and compound, such that the resulting cell density for the vehicle well matched the initial seeding density. For days 7 and 10, estimated cell number represents the split-adjusted theoretical cell number. HCT116 were plated (96-well) in triplicate at 250 cells per well. Cells were incubated in the presence of vehicle, 1 μM paclitaxel, or compound. On day 7, CellTiter-Blue (Promega) response was measured and values were normalized to vehicle (100% growth) and paclitaxel (0% growth). For growth assays with inhibitors, n=3 for each concentration with two independent experiments.

GRANTA 519 = experiment: Cellular proliferation assay; conditions: Mantle Cell Lymphoma
Method: as §1

Jurkat = experiment: Cellular proliferation assay; conditions: T-ALL
Method: as §1

Kasumi-1 = experiment: Cellular proliferation assay; conditions: AML, RUNX1-RUNX1T1
Method: as §1

MKPL-1 = experiment: Cellular proliferation assay; conditions: MKPL-1 (RBM6-CSF1R), adult non-DS-AMKL; 10-day treatment; read-out: G150 after 10 days of treatment
Method: as §1

MM1.S = experiment: Cellular proliferation assay; conditions: MM
Method: as §1

MOLM-14 = experiment: Cellular proliferation assay
Method: as §1

MOLM-16 = experiment: Cellular proliferation assay; conditions: AMkL < 1
Method: as §1

MV4; 11 = experiment: Cellular proliferation assay
Method: as §1

REH = experiment: Cellular proliferation assay; conditions: pre B-ALL, ETV6-RUNX1
Method: as §1

SET-2 = experiment: Cellular proliferation assay
Method: as §1

SKNO-1 = experiment: Cellular proliferation assay
Method: as §1

TF-1 = experiment: Cellular proliferation assay
Method: as §1

leukemia cell lines = experiment: Cellular proliferation assay; conditions: K562 and HEL compared to MEG-01 and SET-2 (BCR-Abl or JAK2V617F)
Method: as §1

[1] = test system: megakaryocytic cell lines; experiment: Cellular proliferation assay; conditions: read-out: 50% maximal growth inhibitory concentrations (GI50s); 5 out of 5 megakaryocytic cell lines tested
Method: as §1

RUNX1 = RUNX1 recruitment to genomic loci; conditions: FIG. 11

Substance: Cortistatin A
- IC50 (CMK-86; CMK-86 (GATA1s), pediatric DS-AMKL, 10-day treatment, read-out: G150 after 10 days of treatment): 8 nM
- GI50 (CMK-86; CMK-86, AMkL, GATA1s): 8 nM
- GI50 (GRANTA 519): 400 nM
- GI50 (Jurkat): 155 nM
- GI50 (Kasumi-1): 95 nM
- IC50 (MKPL-1): 1 nM
- GI50 (MM1.S): 5 nM
- GI50 (MOLM-14; MOLM-14 (MLL-AF9), 10-day treatment, read-out: G150 after 10 days of treatment): 5 nM
- GI50 (MOLM-14; MOLM-14, AML, MLL-AF9, read-out: GI50): 5 nM
- GI50 (MOLM-16): < 1 nM
- IC50 (MV4; 11; 11 (MLL-AF4), 10-day treatment, read-out: G150 after 10 days of treatment): 6 nM
- GI50 (MV4; 11; 11, AML, MLL-AF4): 6 nM
- GI50 (REH): 1 nM
- IC50 (SET-2; SET-2 (JAK2V617F), 10-day treatment, read-out: G150 after 10 days of treatment): 4 nM
- GI50 (SET-2; SET-2, AMkL/MPN, JAK2V617F): 4 nM
- proliferation, theoretical cell number over time (SET-2; SET-2, FIG. 4): inhibits the proliferation
- IC50 (SKNO-1; SKNO-1 (RUNX1-RUNX1T1), 10-day treatment, read-out: G150 after 10 days of treatment): 1 nM
- GI50 (SKNO-1; SKNO-1, RUNX1-RUNX1T1): 1 nM
- IC50 (TF-1; TF-1 (EpoR), erythroleukemia, 10-day treatment, read-out: G150 after 10 days of treatment): 350 nM
- GI50 (TF-1; TF-1, AML/Erythroleukemia, EpoR): 350 nM
- difference in sensitivity, megakaryocytic vs erythroleukemia cell lines containing the same mutations (leukemia cell lines): more than 100 fold
- IC50 [1]: < 10 nM
- RUNX1 recruitment to loci (RUNX1): recruited

Reference: US20180369230A1, “TARGETED SELECTION OF PATIENTS FOR TREATMENT WITH SPECIFIC CORTISTATIN DERIVATIVES” (President and Fellows of Harvard College, priority 2015, published 2018)
